Assay results: publication PMC12486854, “Targeting mycobacterial transpeptidases: evaluating the roles of Ldt and PBP inhibition in suppressing Mycobacterium smegmatis” (Antimicrobial Agents and Chemotherapy, 2025)
Like-named read-outs stand apart in the source and are kept apart here.

Key:
[1] = test system: Mycobacterium smegmatis (Msm); design: broth microdilution MIC, resazurin read-out, 4 days at 37 C; settings: without clavulanic acid; 96 h
[2] = test system: Mycobacterium smegmatis (Msm); experiment: microbe, parasite or virus in culture; settings: without clavulanic acid, 96 h
Mtb PBP3 Δ1-122 [3] = target: T1, Mtb PBP3 Δ1-122 (Mycobacterium tuberculosis, UniProt L0T911); experiment: biochemical
T1 construct: gene pbpB; N-terminally truncated (residues 1-122 removed), codon-optimised gene in pCold, E. coli BL21(DE3), His tag cleaved with 3C protease, calculated mass 60,148 Da, observed 60,152 Da
T1 sequence (L0T911 whole entry, looked up, stated change not applied, the tested form may be a part): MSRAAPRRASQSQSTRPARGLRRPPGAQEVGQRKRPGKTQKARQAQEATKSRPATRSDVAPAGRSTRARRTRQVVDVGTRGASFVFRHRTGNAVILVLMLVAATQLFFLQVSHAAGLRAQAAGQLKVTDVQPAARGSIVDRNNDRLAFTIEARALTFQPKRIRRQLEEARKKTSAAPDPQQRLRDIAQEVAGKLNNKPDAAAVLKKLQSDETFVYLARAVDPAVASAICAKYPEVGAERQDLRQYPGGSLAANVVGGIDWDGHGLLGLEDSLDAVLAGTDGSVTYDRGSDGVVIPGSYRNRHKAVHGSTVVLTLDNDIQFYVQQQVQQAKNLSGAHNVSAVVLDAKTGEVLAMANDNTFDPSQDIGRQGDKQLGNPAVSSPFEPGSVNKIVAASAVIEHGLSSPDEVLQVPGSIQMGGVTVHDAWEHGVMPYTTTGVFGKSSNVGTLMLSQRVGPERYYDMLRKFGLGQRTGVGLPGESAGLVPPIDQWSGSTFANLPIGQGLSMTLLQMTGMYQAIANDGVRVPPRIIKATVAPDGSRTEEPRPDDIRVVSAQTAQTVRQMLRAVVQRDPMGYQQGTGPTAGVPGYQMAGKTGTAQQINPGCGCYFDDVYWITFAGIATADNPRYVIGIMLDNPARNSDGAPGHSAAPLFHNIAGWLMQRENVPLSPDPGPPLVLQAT

Mtb PBP3 Δ1-122 [4] = target: T1, Mtb PBP3 Δ1-122; experiment: biochemical; assay type: biochemical
LdtMt2 [5] = target: T2, LdtMt2 (Mycobacterium tuberculosis, UniProt I6Y9J2); experiment: biochemical
T2 construct: gene ldtB
T2 sequence (I6Y9J2 35-408): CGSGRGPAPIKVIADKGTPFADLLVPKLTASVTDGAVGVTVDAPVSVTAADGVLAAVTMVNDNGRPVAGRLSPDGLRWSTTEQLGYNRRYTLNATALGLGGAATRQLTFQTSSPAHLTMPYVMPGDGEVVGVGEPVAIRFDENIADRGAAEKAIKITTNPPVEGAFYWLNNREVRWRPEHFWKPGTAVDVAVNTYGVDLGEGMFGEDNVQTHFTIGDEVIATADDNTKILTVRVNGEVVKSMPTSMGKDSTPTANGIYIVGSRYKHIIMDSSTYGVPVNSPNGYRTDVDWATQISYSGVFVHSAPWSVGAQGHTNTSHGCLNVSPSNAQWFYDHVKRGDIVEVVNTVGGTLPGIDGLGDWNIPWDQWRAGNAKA

LdtMt2 [6] = target: T2, LdtMt2; experiment: biochemical; remark: listed apart in the source
[7] = test system: Mycobacterium smegmatis (Msm); settings: without clavulanic acid; 96 h
[8] = 10 min pre-incubation, read-out: pIC50 LdtMt2 (converted)

CC[C@@H](CO)NCCN[C@@H](CC)CO [Ethambutol]
MIC Msm (µg/mL), no clavulanic acid [1]: 0.25 µg/mL

C[C@@H](O)[C@H]1C(=O)N2C(C(=O)O)=C([C@H]3CCCO3)S[C@H]12 [compound 1, faropenem]
MIC Msm (µg/mL), no clavulanic acid [2]: 16 µg/mL

C[C@@H](O)[C@H]1C(=O)N2C(C(=O)O)=C(SCCN=CN)C[C@H]12 [compound 2, imipenem]
IC50 (Mtb PBP3 Δ1-122 [3]): 0.501 µM | MIC Msm (µg/mL), no clavulanic acid [2]: 0.125 µg/mL

CC(C)(O/N=C(\C(=O)N[C@@H]1C(=O)N2C(C(=O)[O-])=C(C[n+]3ccccc3)CS[C@H]12)c1csc(N)n1)C(=O)O [compound 6, ceftazidime]
IC50 (Mtb PBP3 Δ1-122 [4]): 3.16 µM | MIC Msm (µg/mL), no clavulanic acid [2]: >128 µg/mL

CO/N=C(\C(=O)N[C@@H]1C(=O)N2C(C(=O)O)=C(CSc3nc(=O)c(=O)[nH]n3C)CS[C@H]12)c1csc(N)n1 [compound 7, ceftriaxone]
MIC Msm (µg/mL), no clavulanic acid [2]: >128 µg/mL

CC1(C)S[C@@H]2[C@H](NC(=O)[C@H](N)c3ccccc3)C(=O)N2[C@H]1C(=O)O [compound 11, ampicillin]
MIC Msm (µg/mL), no clavulanic acid [2]: >128 µg/mL

CC1(C)S[C@@H]2[C@H](NC(=O)[C@H](N)c3ccc(O)cc3)C(=O)N2[C@H]1C(=O)O [compound 12, amoxicillin]
MIC Msm (µg/mL), no clavulanic acid [2]: >128 µg/mL

CC1(C)S[C@@H]2[C@H](NC(=O)C(C(=O)O)c3ccccc3)C(=O)N2[C@H]1C(=O)O (stereo partly drawn) [compound 15, carbenicillin]
IC50 (Mtb PBP3 Δ1-122 [4]): 3.98 µM

C[C@H]1[C@H](NC(=O)/C(=N\OC(C)(C)C(=O)O)c2csc(N)n2)C(=O)N1S(=O)(=O)O [compound 16, aztreonam]
IC50 (Mtb PBP3 Δ1-122 [4]): 158 µM

O=C(O)[C@H]1/C(=C/CO)O[C@@H]2CC(=O)N21 [compound 17, clavulanic acid]
IC50 (Mtb PBP3 Δ1-122 [3]): > 398 µM | MIC ([2]; Mycolicibacterium smegmatis, read-out: MIC Msm (µg/mL), no clavulanic acid): 128 µg/mL

CCC(C)[C@H](NC(=O)OCc1ccccc1)C(=O)CCl (stereo partly drawn) [compound 18, 18]
pIC50 (Mtb PBP3 Δ1-122 [4]): < 3.4

CCC(C)[C@H](NC(=O)OCc1ccccc1)C(=O)CCl (stereo partly drawn) [compound 18]
MIC Msm (µg/mL), no clavulanic acid [2]: >128 µg/mL

O=C1C=CC(=O)N1c1ccc(Oc2ccccc2)c(Cl)c1 [compound 19]
IC50 (Mtb PBP3 Δ1-122 [3]): 100 µM | MIC Msm (µg/mL), no clavulanic acid [2]: 64 µg/mL

O=C(OCN1C(=O)C=CC1=O)c1ccccc1 [compound 20]
MIC Msm (µg/mL), no clavulanic acid [2]: 64 µg/mL

O=c1c2cc(Cl)c(Cl)cc2sn1CCO [compound 21, 21]
IC50 (Mtb PBP3 Δ1-122 [3]): 79.4 µM | MIC Msm (µg/mL), no clavulanic acid [2]: 32 µg/mL

COc1ccc(CN2C(=O)C(=O)c3cc(Br)cc(C)c32)cc1OC [compound 22, 22]
IC50 (Mtb PBP3 Δ1-122 [4]): > 398 µM

COc1ccc(CN2C(=O)C(=O)c3cc(Br)cc(C)c32)cc1OC [compound 22]
MIC Msm (µg/mL), no clavulanic acid [2]: >128 µg/mL

O=C1C(=O)N(Cc2cccc3ccccc23)c2ccc(Br)cc21 [compound 23, 23]
MIC Msm (µg/mL), no clavulanic acid [2]: >128 µg/mL

NC(=O)OCC1=C(C(=O)O)N2C(=O)C(NC(=O)C(=CS(=O)(=O)CCc3ccc(O)c(O)c3)c3csc(N)n3)C2SC1 (stereo not drawn) [compound 24, 24]
pIC50 (Mtb PBP3 Δ1-122 [4]): 6.1 ± 0.089

N#Cn1c(-c2cc(F)cc(C(F)(F)F)c2)nc2ccccc21 [compound 25, 25]
IC50 (Mtb PBP3 Δ1-122 [4]): > 398 µM | MIC Msm (µg/mL), no clavulanic acid [2]: 48 µg/mL

N#Cn1c(-c2ccncc2)nc2ccc(C(=O)c3ccccc3)cc21 [compound 26]
MIC Msm (µg/mL), no clavulanic acid [2]: 16 µg/mL

O=C(C1OC1c1ccccc1)C1OC1c1ccccc1 (stereo not drawn) [compound 28, 28]
pIC50 (Mtb PBP3 Δ1-122 [4]): < 3.4

COc1cccc(NC(=O)C(Cl)=C(Cl)S(=O)(=O)Cc2ccccc2Cl)n1 [compound 29, 29]
pIC50 (Mtb PBP3 Δ1-122 [4]): < 3.4

NC(=O)C=CC(=O)Nc1ccc(Cl)cc1 [compound 30, 30]
IC50 (Mtb PBP3 Δ1-122 [4]): > 398 µM

NC(=O)C=CC(=O)Nc1ccc(Cl)cc1 [compound 30]
MIC Msm (µg/mL), no clavulanic acid [2]: >128 µg/mL

O=[N+]([O-])c1ccc(S(=O)(=O)c2ccccc2)nc1 [compound 31, 31]
kinact/KI (LdtMt2 [5]; read-out: kinact/KI LdtMt2): 52.6 M⁻¹ s⁻¹ | IC50 (LdtMt2 [6]; [8]): 5.01 µM | IC50 (Mtb PBP3 Δ1-122 [4]): > 398 µM | MIC Msm (µg/mL), no clavulanic acid [2]: 8 µg/mL

O=[N+]([O-])c1ccc(S(=O)(=O)c2ccccc2)cn1 [compound 32, 32]
kinact/KI (LdtMt2 [5]; read-out: kinact/KI LdtMt2): < 10 M⁻¹ s⁻¹ | IC50 (LdtMt2 [6]; [8]): 25.1 µM | MIC Msm (µg/mL), no clavulanic acid [7]: 4 µg/mL

Cc1ccc(S(=O)(=O)c2ccc([N+](=O)[O-])cn2)cc1 [compound 33, 33]
kinact/KI (LdtMt2 [5]; read-out: kinact/KI LdtMt2): 51.9 M⁻¹ s⁻¹

O=[N+]([O-])c1ccc(S(=O)(=O)c2ccc(Cl)cc2)nc1 [compound 34, 34]
kinact/KI (LdtMt2 [5]; read-out: kinact/KI LdtMt2): 86.9 M⁻¹ s⁻¹

O=[N+]([O-])c1ccc(S(=O)(=O)c2ccc(Br)cc2)nc1 [compound 35, 35]
kinact/KI (LdtMt2 [5]; read-out: kinact/KI LdtMt2): 272 M⁻¹ s⁻¹

O=[N+]([O-])c1cccnc1S(=O)(=O)c1ccccc1 [compound 36, 36]
kinact/KI (LdtMt2 [5]; read-out: kinact/KI LdtMt2): < 10 M⁻¹ s⁻¹ | IC50 (LdtMt2 [6]; [8]): 25.1 µM | MIC Msm (µg/mL), no clavulanic acid [7]: 16 µg/mL

O=S(=O)(c1ccccc1)c1ccccn1 [compound 37, 37]
kinact/KI (LdtMt2 [5]; read-out: kinact/KI LdtMt2): < 10 M⁻¹ s⁻¹ | IC50 (LdtMt2 [6]; [8]): > 39.8 µM | MIC Msm (µg/mL), no clavulanic acid [7]: >128 µg/mL

O=S(=O)(c1ccccc1)c1cccnc1 [compound 38, 38]
kinact/KI (LdtMt2 [5]; read-out: kinact/KI LdtMt2): < 10 M⁻¹ s⁻¹ | IC50 (LdtMt2 [6]; [8]): > 39.8 µM | MIC Msm (µg/mL), no clavulanic acid [7]: >128 µg/mL

O=S(=O)(c1ccccc1)c1ccncc1 [compound 39, 39]
kinact/KI (LdtMt2 [5]; read-out: kinact/KI LdtMt2): < 10 M⁻¹ s⁻¹ | IC50 (LdtMt2 [6]; [8]): > 39.8 µM | MIC Msm (µg/mL), no clavulanic acid [7]: >128 µg/mL

COc1ccc(S(=O)(=O)c2ccccc2)nc1 [compound 40, 40]
kinact/KI (LdtMt2 [5]; read-out: kinact/KI LdtMt2): < 10 M⁻¹ s⁻¹ | IC50 (LdtMt2 [6]; [8]): > 39.8 µM | MIC Msm (µg/mL), no clavulanic acid [7]: >128 µg/mL

N#Cc1ccc(S(=O)(=O)c2ccccc2)nc1 [compound 41, 41]
kinact/KI (LdtMt2 [5]; read-out: kinact/KI LdtMt2): < 10 M⁻¹ s⁻¹ | IC50 (LdtMt2 [6]; [8]): 25.1 µM | MIC Msm (µg/mL), no clavulanic acid [7]: >128 µg/mL

N#Cc1cccnc1S(=O)(=O)c1ccccc1 [compound 42, 42]
kinact/KI (LdtMt2 [5]; read-out: kinact/KI LdtMt2): < 10 M⁻¹ s⁻¹ | IC50 (LdtMt2 [6]; [8]): > 39.8 µM | MIC Msm (µg/mL), no clavulanic acid [7]: >128 µg/mL

O=[N+]([O-])c1ccc(Cl)nc1 [compound 43, 43]
kinact/KI (LdtMt2 [5]; read-out: kinact/KI LdtMt2): < 10 M⁻¹ s⁻¹ | IC50 (LdtMt2 [6]; [8]): > 39.8 µM | MIC Msm (µg/mL), no clavulanic acid [7]: 32 µg/mL

Clc1ccccn1 [compound 44, 44]
kinact/KI (LdtMt2 [5]; read-out: kinact/KI LdtMt2 (M^-1 s^-1)): < 10 M⁻¹ s⁻¹ | IC50 (LdtMt2 [6]): > 39.8 µM | MIC Msm (µg/mL), no clavulanic acid [7]: >128 µg/mL

Nc1ncc(S(=O)(=O)c2ccc([N+](=O)[O-])cc2)s1 [compound 45, 45]
MIC Msm (µg/mL), no clavulanic acid [7]: >128 µg/mL

O=[N+]([O-])c1ccc(S(=O)(=O)c2ncc(C(F)(F)F)cc2Cl)cc1 [compound 46, 46]
kinact/KI (LdtMt2 [5]; read-out: kinact/KI LdtMt2): < 10 M⁻¹ s⁻¹ | IC50 (LdtMt2 [6]; [8]): > 39.8 µM | MIC Msm (µg/mL), no clavulanic acid [7]: >128 µg/mL

C[C@@H](O)[C@H]1C(=O)N2C(C(=O)O)=C(S[C@@H]3CN[C@H](CNS(N)(=O)=O)C3)[C@H](C)[C@H]12 [doripenem]
MIC Msm (µg/mL), no clavulanic acid [2]: 0.5 µg/mL

C[C@@H](O)[C@H]1C(=O)N2C(C(=O)O)=C(S[C@@H]3CN[C@H](C(=O)Nc4cccc(C(=O)O)c4)C3)[C@H](C)[C@H]12 [ertapenem]
MIC Msm (µg/mL), no clavulanic acid [2]: 4 µg/mL

C[C@@H](O)[C@H]1C(=O)N2C(C(=O)O)=C(S[C@@H]3CN[C@H](C(=O)N(C)C)C3)[C@H](C)[C@H]12 [meropenem]
MIC Msm (µg/mL), no clavulanic acid [2]: 2 µg/mL
